Experimental findings from patent US20200323962A1, “LIPOPHILIC PEPTIDE PRODRUGS” (YISSUM RESEARCH DEVELOPMENT COMPANY OF THE HEBREW …, priority 2017, published 2020) are described below.

Each structure is given as a SMILES string. Read-outs that look alike come from different tables or passages of the source.

For data set [1] the following is noted: for Papp A→B: Caco-2, Papp (AB); for Papp B→A: Caco-2, Papp (BA).
The conditions of data set [2]: pH 7.4, LogD, pH 7.4 (mean / reported value).
Experimental: (§1) Log D. Determination of distribution coefficients were performed as follows:
(§2) Incubations were carried out in Eppendorf-type polypropylene microtubes in triplicates. […] Phase separation was assured by centrifugation for 2 min at 6000 rpm. The octanol phase was diluted 100-fold with 40% acetonitrile, and aqueous phase was analyzed without dilution. The samples (both phases) were analyzed using HPLC system coupled with tandem mass spectrometer.
For data set [3], the system named is Caco-2 cells.
The conditions of data set [4]: PAMPA, pH 7.4.
Text: (§3) The Parallel Artificial Membrane Permeability Assay (PAMPA) is used as an in vitro model of passive, transcellular permeation. […] This assay also allows evaluation of permeability over a large pH range, which is valuable for a preliminary understanding of how orally delivered compounds might be absorbed across the entire gastrointestinal tract. […] Depending upon the types of lipids used and other experimental conditions, PAMPA may be designed to model absorption in gastrointestinal tract (PAMPA-GIT), blood-brain barrier penetration (PAMPA-BBB) or skin penetration (Skin PAMPA). All steps of the PAMPA were carried out according to pION Inc. PAMPA Explorer™ Manual. The main principle of the assay is the incubation of compound in donor chamber (a well in Donor Plate) with aqueous buffer, which is separated from acceptor chamber (a well in Acceptor Plate) with another buffer by a phospholipid or hydrocarbon membrane fixed on a filter support. After the test, concentrations in the corresponding donor and acceptor wells are measured and permeability is calculated. GIT model was simulated using GIT-0 phospholipid mix. […] All compounds were tested in triplicates. Prisma HT buffer (pH 7.4) containing 50 μM test compounds and 0.5% DMSO were added into the Donor Plate wells. Acceptor Sink buffer was added into each well of the acceptor plate. Incubation was done at room temperature for 4 hours without stirring. […] Compounds with low UV-Vis signal were detected by LC-MS/MS method. Then the apparent permeability coefficient was calculated.
Data set [5] in a line: in vitro. Particulars: human; for efflux ratio at 90 min, 10 µM: Caco-2, pH 7.4, Net efflux (quotient of Papp (BA) to Papp (AB)); for Papp A→B at 90 min, 10 μM: Caco-2, pH 7.4, Papp (AB); for Papp B→A at 90 min, 10 μM: Caco-2, pH 7.4, Papp (BA). For orientation: Caco-2 monolayers are a common model of the intestinal barrier.
Data set [6] can be described thus: PAMPA-GIT permeability. Conditions: pH 7.4, 4 hours.
Text: as §3
The test system of data set [7] is Caco-2 cells. The data set is described as follows: Caco-2 permeability study (Examples 1-4).
Experimental: The culture growth medium consisted of DMEM supplemented with 10% heat-inactivated FBS, 1% MEM-NEAA, 2 mM 1-glutamine, 1 mM sodium pyruvate, 50,000 units Penicillin G Sodium and 50 mg Streptomycin Sulfate (Biological Industries). The medium was replaced every other day.
Cells (passage 55-60) were seeded at density of 25×10^5 cells/cm^2 on untreated culture inserts of polycarbonate membrane with 0.4 μm pores and surface area of 1.1 cm^2. Culture inserts containing Caco-2 monolayer were placed in 12 mm transwell plates (Corning). Culture medium was replaced every other day. Transepithelial Electrical Resistance (TEER) values were measured by Millicell ERS-2 System (Millipore) a week after seeding up to experiment day (21-23 days) to ensure proliferation and differentiation of the cells. When the cells were fully differentiated and TEER values became stable (200-500 Ω·cm^2). The TEER values were compared to control inserts containing only the medium.
The experiment was initiated by replacing the medium from both sides by apical (600 μl) and basolateral (1500 μl) buffers, both warmed to 37° C. The Cells were incubated with the buffers solutions for 30 min at 37° C. on a shaker (100 cycles/min). […] 50 μl samples were taken from the apical side immediately at the beginning of the experiment, resulting in 550 μl apical volume during the experiment.
Permeability Coefficient (Papp) for each compound was calculated from the linear plot of drug accumulated versus time, using the following equation:
Where dq/dt is steady state appearance rate of the compound on the receiver side, C0 is the initial concentration of the drug on the donor side, and A is the exposed tissue surface area (1.1 cm^2).
Transport studies were performed through the Caco-2 monolayer mounted in an Ussing-type chamber set-up with continuous trans-epithelial electrical resistance (TEER) measurements to assure TEER between 800 and 1200 Ω*cm^2. HBSS supplemented with 10 mM IVIES and adjusted to pH 6.5 were used as transport medium in the donor compartment and pH 7.4 in the acceptor compartment. The donor solution contained the test compound.
Permeability mechanism of compounds is studied by evaluating the Papp of a compound from the apical to the basolateral (A-to-B) membrane and its Papp from the basolateral to the apical membrane (B-to-A). The A-to-B assay simulates passive and transporter-mediated permeability. The B-to-A assay is essential complementary experiment indicative of the activity of P-gp. The ratio of the A-to-B and B-to A Papps (efflux ratio) is calculated to determine the permeability mechanism.
Data set [8] in a line: Log D determination (octanol/PBS pH 7.4). Conditions: pH 7.4, octanol/PBS.
Experimental: as §1, §2
The nature of data set [9]: Caco-2 A-B and B-A permeability with/without verapamil (Example 6). Conditions: human, Caco-2, pH 7.4.
The subject of data set [10] is Caco-2 cells. The data set is described as above. Particulars: 10 μM, 90 min, no verapamil.
For data set [11], the system named is P-gp. In words: in vitro. Conditions: human, Caco-2, pH 7.4, Net efflux in the presence of Verapamil.

A word on the Papp A→B: it is how fast a substance crosses the layer from the apical side. The Papp B→A is the apparent permeability from the basolateral to the apical side of a cell layer. Usually logD stands for lipophilicity at a set pH, counting ionised and neutral species. As a reminder, the efflux ratio is a quotient of directional permeabilities that is used to spot active efflux.

As to `C[C@@H]1NC(=O)[C@H](C)NC(=O)[C@@H](C)N(C)C(=O)[C@H](C)N(C)C(=O)[C@H](C)NC(=O)[C@H](C)NC1=O` [1,6CHA, *aAAAA*A], in data set [1] (Mean), the Papp A→B was 0.1 ×10⁻⁶ cm/s and the Papp B→A is 0.1 ×10⁻⁶ cm/s. Also, in data set [1] (replicate 2), the Papp A→B was 0.1 ×10⁻⁶ cm/s and the Papp B→A stood at 0.1 ×10⁻⁶ cm/s. Also, in data set [1] (replicate 3), the Papp A→B stood at 0.1 ×10⁻⁶ cm/s and the Papp B→A was 0.2 ×10⁻⁶ cm/s. Besides, the Papp B→A in [1] (replicate 1) was 0.1 ×10⁻⁶ cm/s. Also, the logD in data set [2] was -0.97. In addition, the “Papp (AB), replicate 1” value in data set [3] is recorded as 0.0 10^−6 cm/s. In [4], the Mass retention is reported as 27%; the “Permeability, Mean” value was below −7 Log10[10^−6 cm/s]; the “Permeability, replicate 1” value is below −7 Log10[10^−6 cm/s]; the “Permeability, replicate 2” value was below −7 Log10[10^−6 cm/s]. The “Permeability, replicate 3” value in [4] is below −7 Log10[10^−6 cm/s]. The efflux ratio at 90 min, 10 µM in data set [5] was found to be 1.1.

Consider `CC(C)[C@@H]1C(=O)N[C@@H](CCCNC(=N)N)C(=O)NCC(=O)N[C@@H](CC(=O)O)C(=O)N[C@@H](C)C(=O)N(C)[C@@H](C)C(=O)N1C` [peptide 29, c(*vRGDA*A)], for which, in data set [6], the Mass retention was determined as 15%; the “Permeability, Mean” value was below −7 Log10[10^−6 cm/s]; the “Permeability, replicate 1” value was below −7 Log10[10^−6 cm/s]; the “Permeability, replicate 2” value is below −7 Log10[10^−6 cm/s]. Also, the “Permeability, replicate 3” value in [6] is below −7 Log10[10^−6 cm/s]. The efflux ratio in [7] (Table 3) came to 2.14. Also, in [7] (Table 3, n = 3), the “Papp AB” value was determined as 0.07 ± 0.01 cm/s × 10^6 and the “Papp BA” value turned out to be 0.15 ± 0.01 cm/s × 10^6. For the same compound, the “Caco-2 permeability” value in data set [7] (qualitative) is “significant lower permeability”. Also, in data set [8] (pH 7.4, LogD, pH 7.4 (mean in parentheses below reported bound)), the logD is -2.84. In addition, the “LogD, pH 7.4 (mean / reported value)” value in data set [8] was below −1. Moreover, the efflux ratio at 90 min, 10 µM in data set [9] was determined as 0.4. In [10], the “Papp (AB), Mean” value is 0.7 10^−6 cm/s; the “Papp (AB), replicate 1” value is given as 1.0 10^−6 cm/s; the “Papp (AB), replicate 2” value is given as 0.2 10^−6 cm/s; the “Papp (AB), replicate 3” value is recorded as 0.9 10^−6 cm/s. Further, in data set [10], the “Papp (BA), Mean” value is reported as 0.3 10^−6 cm/s; the “Papp (BA), replicate 1” value is listed as 0.3 10^−6 cm/s; the “Papp (BA), replicate 2” value is listed as 0.4 10^−6 cm/s; the “Papp (BA), replicate 3” value is 0.2 10^−6 cm/s.

On to `C[C@H]1O[C@@H](O[C@H]2[C@@H](O)C[C@H](O[C@H]3[C@@H](O)C[C@H](O[C@H]4CC[C@@]5(C)[C@H](CC[C@@H]6[C@@H]5C[C@@H](O)[C@]5(C)[C@@H](C7=CC(=O)OC7)CC[C@]65O)C4)O[C@@H]3C)O[C@@H]2C)C[C@H](O)[C@@H]1O` [Digoxin], for which the figures for the efflux ratio at 90 min, 10 µM in data set [5] and in data set [11] were 28.6 and 1.5, respectively. Besides, the figures for the Papp A→B at 90 min, 10 μM in data set [5] (Mean), in [5] (replicate 1) and in [5] (replicate 3) were 0.4 ×10⁻⁶ cm/s, 0.4 ×10⁻⁶ cm/s and 0.5 ×10⁻⁶ cm/s, respectively. Moreover, the Papp B→A at 90 min, 10 μM in data set [5] (Mean) came out at 12 ×10⁻⁶ cm/s; in [5] (replicate 1) it was 9.4 ×10⁻⁶ cm/s; in data set [5] (replicate 2), 12 ×10⁻⁶ cm/s; in data set [5] (replicate 3), 14.7 ×10⁻⁶ cm/s.
